Read-outs that look alike come from different tables or passages of the source.
Experiments:
L. major amastigote = L. major amastigote assay; type: cell-based; conditions: Leishmania major
L. major promastigote = L. major promastigote assay; type: cell-based; conditions: Leishmania major
T. cruzi = T. cruzi growth inhibition; type: cell-based, Trypanosoma cruzi; conditions: Trypanosoma cruzi
[1] = HepG2 cell toxicity (MTT) assay; type: cell-based; conditions: human, HepG2 cells; Table 13; read-out: HepG2 TC50
P. fal = P. fal assay of Table 13 (strain not given); type: cell-based, P. falciparum; conditions: Plasmodium falciparum
[2] = test system: T. brucei brucei Lister 427; assay: Trypanosome replication assay; type: cell-based, Trypanosoma brucei brucei; conditions: Trypanosoma brucei; for inhibition at 5 µM: read-out: Tbb % inh at 5 μM; for EC50: 48 h, values ±7%
HepG2 cells = assay: HepG2 cell toxicity (MTT) assay; type: cell-based; conditions: Table 13; read-out: HepG2 TC50
[3] = test system: T. brucei brucei Lister 427; conditions: published activities of HAT treatments and SCYX-7158; read-out: Tbb EC50; cited from earlier work
in vitro = conditions: male, BALB/c, mouse
Method: Mice plasma (BALB/c mice, male—pool of 3 animals) was collected in-house using K2EDTA as anticoagulant. […] Glipizide (Cat #50402G) was purchased from Apin chemicals, Abingdon, Oxon. Albendazole (Cat #A4673) was purchased from Sigma. Phosphate buffered saline pH 7.4 (0.1 M sodium phosphate and 0.15 M sodium chloride) and RED device inserts were procured from Thermo Scientific, Meridian Rd., Rockford, Ill.
Further 1 mM stock was diluted 200-fold in mice plasma to prepare a concentration of 5 μM. The final DMSO concentration in plasma was 0.5%.
Rapid equilibrium dialysis was performed with a rapid equilibrium dialysis (RED) device containing dialysis membrane with a molecular weight cut-off of 8,000 Daltons. Each dialysis insert contains two chambers. The red chamber is for plasma while the white chamber is for buffer. A 200 μL aliquot of warfarin or test compound at 5 μM (triplicates) was separately added to the plasma chamber and 350 μL of phosphate buffer saline (pH 7.4) was added to the buffer chamber of the inserts. After sealing the RED device with an adhesive film, dialysis was performed at 37° C. with shaking at 100 rpm for 4 hours as per manufacturer's recommendation.
Recovery and stability: A 50 μL aliquot of warfarin or test compound was added to four 0.5 mL microfuse tubes. Two aliquots were frozen immediately (0 minute sample). The other two aliquots were incubated at 37° C. for 4 hours along with the RED device.
Following dialysis, an aliquot of 50 μL was removed from each well (both plasma and buffer side) and diluted with equal volume of opposite matrix (dialyzed with the other matrix) to nullify the matrix effect. Similarly, 50 μL of buffer was added to recovery and stability samples. An aliquot of 100 μL was submitted for LC-MS/MS analysis.
A 25 μL aliquot of warfarin and test compounds were crashed with 100 μL of acetonitrile containing internal standard (glipizide for warfarin and test compound) and vortexed for 5 minutes. The samples were centrifuged at 15,000 rpm at 4° C. for 10 min and 100 μL of supernatant was submitted for LCMS/MS analysis. Samples were monitored for parent compound in MRM mode using LC-MS/MS.

[4] = concentration giving 50% inhibition of growth of T brucei brucei Lister 427 cells, read-out: Tbb EC50
[5] = read-out: Tbb EC50, concentration giving 50% inhibition of growth of T brucei brucei Lister 427 cells

Row | SMILES | EC50 (L. major amastigote) [nM] | EC50 (L. major promastigote) [nM] | EC50 (T. cruzi) [nM] | EC50 (P. fal) [nM] | EC50 [2, 4] [nM] | CC50 (HepG2 cells) [nM] | other results
1 | Fc1cccc(COc2ccc(Nc3nccc4cc(-c5cccc(N6CCOCC6)c5)ccc34)cc2Cl)c1 [NEU-946, N-(3-Chloro-4-((3-fluorobenzyl)oxy)phenyl)-6-(3-morpholinophenyl)isoquinolin-1-amine] | 2200 | > 15000 | > 50000 | 2800 | – | – | CC50 at 48 h [1]: > 15000 nM; inhibition at 5 µM [2]: 12%
2 | O=S(=O)(c1ccc(-c2ccc3nncc(Nc4ccc(OCc5ccccc5)c(Cl)c4)c3c2)cc1)N1CCOCC1 [NEU-1002, N-(4-(Benzyloxy)-3-chlorophenyl)-6-(4-(morpholinosulfonyl)phenyl)cinnolin-4-amine] | > 15000 | > 15000 | > 50000 | 820 | 1200 | > 15000 | –
3 | Fc1cccc(COc2ccc(Nc3cnnc4ccc(-c5cccc(N6CCOCC6)c5)cc34)cc2Cl)c1 [NEU-1012, N-(3-Chloro-4-((3-fluorobenzyl)oxy)phenyl)-6-(3-morpholinophenyl)cinnolin-4-amine] | > 15000 | > 15000 | > 50000 | 540 | 1100 | > 15000 | –
4 | CN1CCN(S(=O)(=O)c2ccc(-c3ccc4c(Nc5ccc(OCc6cccc(F)c6)c(Cl)c5)nncc4c3)cc2)CC1 [NEU-1041, N-(3-Chloro-4-((3-fluorobenzyl)oxy)phenyl)-6-(4-((4-methylpiperazin-1-yl)sulfonyl)phenyl)phthalazin-1-amine, Formic Acid] | > 15000 | 1300 | 18000 | 45 | – | > 15000 | EC50 [2, 5]: 1200 nM
5 | CN1CCCN(S(=O)(=O)c2ccc(-c3ccc4c(Nc5ccc(OCc6cccc(F)c6)c(Cl)c5)nncc4c3)cc2)CC1 [NEU-1042, N-(3-Chloro-4-((3-fluorobenzyl)oxy)phenyl)-6-(4-((4-methyl-1,4-diazepan-1-yl)sulfonyl)phenyl)phthalazin-1-amine, Formic Acid] | 1100 | 410 | 1300 | 29 | – | 3400 | EC50 [2, 5]: 510 nM
6 | CN1CCN(S(=O)(=O)c2ccc(-c3ccc4cnnc(Nc5ccc(OCc6cccc(F)c6)c(Cl)c5)c4c3)cc2)CC1 [NEU-1043, N-(3-Chloro-4-((3-fluorobenzyl)oxy)phenyl)-7-(4-((4-methylpiperazin-1-yl)sulfonyl)phenyl)phthalazin-1-amine, Formic Acid] | > 4000 | > 3200 | > 50000 | 130 | – | > 5000 | EC50 [2, 5]: 2000 nM
7 | CN1CCCN(S(=O)(=O)c2ccc(-c3ccc4cnnc(Nc5ccc(OCc6cccc(F)c6)c(Cl)c5)c4c3)cc2)CC1 [NEU-1044, N-(3-Chloro-4-((3-fluorobenzyl)oxy)phenyl)-7-(4-((4-methyl-1,4-diazepan-1-yl)sulfonyl)phenyl)phthalazin-1-amine, Formic Acid] | 5600 | > 15000 | 17000 | 94 | – | 14000 | EC50 [2, 5]: 620 nM
8 | CC1(C)OB(O)c2cc(NC(=O)c3ccc(F)cc3C(F)(F)F)ccc21 [SCYX-7158] | – | – | – | – | – | – | EC50 [3]: 794 nM
9 | CC(=O)CC(c1ccccc1)c1c(O)c2ccccc2oc1=O (stereo not drawn) [Warfarin] | – | – | – | – | – | – | recovery at 4 h, 5 μM (in vitro; pH 7.4): 95%; % compound remaining at 4 h (in vitro; plasma, 4 h, 5 μM): 100%; fraction unbound at 4 h, 5 μM (in vitro; plasma, pH 7.4, % Bound Mean (SD)): 0.156; fraction unbound at 4 h, 5 μM (in vitro; plasma, pH 7.4, % Bound R1): 0.051; fraction unbound at 4 h, 5 μM (in vitro; plasma, pH 7.4, % Bound R2): 0.058; fraction unbound at 4 h, 5 μM (in vitro; plasma, pH 7.4, % Bound R3): 0.059
10 | Nc1nc(N)nc(Nc2ccc([As]3SCC(CO)S3)cc2)n1 (stereo not drawn) [melarsoprol] | – | – | – | – | – | – | EC50 [3]: 6.3 nM
11 | N=C(N)c1ccc(OCCCCCOc2ccc(C(=N)N)cc2)cc1 [pentamidine] | – | – | – | – | – | – | EC50 [3]: 3.5 nM

More lines, main results first:

Row | EC50 (L. major amastigote) [nM] | EC50 (L. major promastigote) [nM] | EC50 (T. cruzi) [nM] | EC50 (P. fal) [nM] | EC50 [2, 4] [nM] | SMILES | CC50 (HepG2 cells) [nM] | other results
12 | 6000 | > 15000 | > 50000 | 2500 | – | Fc1cccc(COc2ccc(Nc3nccc4ccc(-c5cccc(N6CCOCC6)c5)cc34)cc2Cl)c1 [NEU-947, N-(3-Chloro-4-((3-fluorobenzyl)oxy)phenyl)-7-(3-morpholinophenyl)isoquinolin-1-amine] | – | CC50 at 48 h [1]: > 15000 nM; inhibition at 5 µM [2]: 0.1%
13 | > 15000 | > 15000 | > 50000 | 870 | > 2500 | O=S(=O)(c1ccc(-c2ccc3ccnc(Nc4ccc(OCc5ccccc5)c(Cl)c4)c3c2)cc1)N1CCOCC1 [NEU-949, N-(4-(Benzyloxy)-3-chlorophenyl)-7-(4-(morpholinosulfonyl)phenyl)isoquinolin-1-amine] | – | CC50 at 48 h [1]: > 15000 nM
14 | 4000 | 900 | 6600 | 35 | 1000 | Fc1cccc(COc2ccc(Nc3ccnc4ccc(-c5cccc(N6CCOCC6)c5)cc34)cc2Cl)c1 [NEU-959, N-(3-Chloro-4-((3-fluorobenzyl)oxy)phenyl)-6-(3-morpholinophenyl)quinolin-4-amine] | 10000 | –
15 | 2000 | 600 | 5300 | 16000 | 460 | CN1CCN(S(=O)(=O)c2ccc(-c3ccc4nccc(Nc5ccc(OCc6cccc(F)c6)c(Cl)c5)c4c3)cc2)CC1 [NEU-960, N-(3-Chloro-4-((3-fluorobenzyl)oxy)phenyl)-6-(4-((4-methylpiperazin-1-yl)sulfonyl)phenyl)quinolin-4-amine] | 6400 | –
16 | 1060 | 4100 | 2200 | 27 | 580 | CN1CCCN(S(=O)(=O)c2ccc(-c3ccc4nncc(Nc5ccc(OCc6cccc(F)c6)c(Cl)c5)c4c3)cc2)CC1 [NEU-1013, N-(3-Chloro-4-((3-fluorobenzyl)oxy)phenyl)-6-(4-((4-methyl-1,4-diazepan-1-yl)sulfonyl)phenyl)cinnolin-4-amine] | 7300 | –
17 | > 15000 | 9800 | 45000 | 200 | 890 | Fc1cccc(COc2ccc(Nc3cnnc4cc(-c5cccc(N6CCOCC6)c5)ccc34)cc2Cl)c1 [NEU-1014, N-(3-Chloro-4-((3-fluorobenzyl)oxy)phenyl)-7-(3-morpholinophenyl)cinnolin-4-amine] | 11000 | –
18 | > 15000 | > 15000 | 15000 | 150 | 1200 | O=S(=O)(c1ccc(-c2ccc3c(Nc4ccc(OCc5ccccc5)c(Cl)c4)cnnc3c2)cc1)N1CCOCC1 [NEU-1015, N-(4-(Benzyloxy)-3-chlorophenyl)-7-(4-(morpholinosulfonyl)phenyl)cinnolin-4-amine] | > 11000 | –
19 | > 4000 | > 3400 | > 50000 | 540 | 860 | O=S(=O)(c1ccc(-c2ccc3cnnc(Nc4ccc(OCc5ccccc5)c(Cl)c4)c3c2)cc1)N1CCOCC1 [NEU-1036, N-(4-(Benzyloxy)-3-chlorophenyl)-7-(4-(morpholinosulfonyl)phenyl)phthalazin-1-amine] | > 5200 | –
20 | > 15000 | > 15000 | > 50000 | 110 | 990 | O=S(=O)(c1ccc(-c2ccc3c(Nc4ccc(OCc5ccccc5)c(Cl)c4)nncc3c2)cc1)N1CCOCC1 [NEU-1039, N-(4-(Benzyloxy)-3-chlorophenyl)-6-(4-(morpholinosulfonyl)phenyl)phthalazin-1-amine] | > 15000 | –
